In patent US20140328951A1, “Composition for Preventing and Treating Vision Deterioration and Age-Related Macular Degeneration through Retinal Repair Using Ginseng/Red Ginseng Extracts and Ginsenoside” (GBIOMIX. CO., LTD., priority 2011, published 2014):

How the values were obtained:
[1] = tested on: human Bruch's membrane; assay: Hydraulic conductivity of Bruch's membrane in open-type Ussing chambers; conditions: 24 hours incubation
Description: Bruch's samples were mounted in open-type Ussing chambers and perfused with Tris-HCl buffer. Eluted samples (fluid coming through Bruch's membrane) were collected and measured for fluid transport. Control was perfused with Tris-HCl buffer whilst others were perfused with ginseng fractions for 24 hours.
Transport was tested as described in Example 3, and measured after 24 hours incubation with ginsenosides.
Transport was tested as described in Example 3, and measured after 24 hours incubation with 10% red ginseng extract.

[2] = tested on: Retinal Pigment Epithelium (RPE) of Pig Eyes; assay: Release of MMPs from RPE of pig eyecups (gelatin zymography); assay type: cell-based; conditions: pig eyecup
Description: Pig whole eyecup preparations of RPE were used in these experiments. Standard buffer for incubations utilised […] supplemented with foetal calf serum and antibiotics. Eyecups were incubated in this basal medium as control and in medium containing ginseng extract. Following a 6-24 hour incubation, the incubating medium was collected and subjected to gelatin zymography to analyse the type and level of MMP species present. In control medium, both pro- and active MMP 2&9 species are released continuously from the RPE (FIG. 7). […] This effect of KRG is conducive for regenerating Bruch's membrane. […]

[3] = 6-24 hour incubation, gelatin zymography, Ginseng extract at 10%

Compound | Effect on hydraulic conductivity of human Bruch's membrane (in words) ([1]; 200 ug/ml) | Fold change in hydraulic conductivity over basal ([1]; 200 ug/ml, 1 donor) | Activated HMW1 level [2, 3] | Release of active MMP2 from the RPE [2, 3] | Release of active MMP9 from the RPE [2, 3] | Release of pro-MMP2 from the RPE [2, 3] | Release of pro-MMP9 from the RPE [2, 3] | Release of MMPs from the RPE (overall) ([2]; FIG. 7) | Effect on hydraulic conductivity of human Bruch's membrane (in words) ([1]; 190 ug/ml) | Fold change in hydraulic conductivity over basal ([1]; 190 ug/ml, 5 donors)
CC(C)=CCC[C@](C)(O[C@@H]1O[C@H](CO[C@@H]2O[C@H](CO)[C@@H](O)[C@H](O)[C@H]2O)[C@@H](O)[C@H](O)[C@H]1O)[C@H]1CC[C@]2(C)[C@@H]1[C@H](O)C[C@@H]1[C@@]3(C)CC[C@H](O[C@@H]4O[C@H](CO)[C@@H](O)[C@H](O)[C@H]4O[C@@H]4O[C@H](CO)[C@@H](O)[C@H](O)[C@H]4O)C(C)(C)[C@@H]3CC[C@]12C [Rb1] | increased | 1.27 | increased activated HMW1 levels | did increase | without effect | did increase | effective in reducing the level of pro-MMP9 | – | – | –
CC(C)=CCC[C@](C)(O[C@@H]1O[C@H](CO)[C@@H](O)[C@H](O)[C@H]1O)[C@H]1CC[C@]2(C)[C@@H]1[C@H](O)C[C@@H]1[C@@]3(C)CC[C@H](O)C(C)(C)[C@@H]3[C@@H](O[C@@H]3O[C@H](CO)[C@@H](O)[C@H](O)[C@H]3O)C[C@]12C [Rg1] | increased | 1.2 | – | – | – | – | increased the amount of pro-MMP9 | without effect | – | –
CC(C)=CCC[C@](C)(O[C@@H]1O[C@H](CO)[C@@H](O)[C@H](O)[C@H]1O)[C@H]1CC[C@]2(C)[C@@H]1[C@H](O)C[C@@H]1[C@@]3(C)CC[C@H](O)C(C)(C)[C@@H]3CC[C@]12C [Compound K, 20-O-β-d-glucopyranosyl-20(S)-protopanaxadiol] | – | – | – | consistently increased | – | consistently increased | consistently increased | – | increased hydraulic conductivity | 1.45 ± 0.15
